Converted amounts (≈) assume the structure as drawn.

Results on nine compounds are retold here after US4728659A, “Aminomethyl derivatives and preparation process thereof as well as platelet aggregation inhibitors containing same” (SS Pharmaceutical Co., Ltd., priority 1984, dated 1988).

The test system of data set [1] is platelet aggregation by arachidonic acid. The experiment in a line: Inhibition of aggregation of rabbit platelets (PRP) by arachidonic acid. The format is cell-based. The note with it: Oryctolagus cuniculus, arachidonic acid 1 mM, compound added 2 minutes before agent, read-out: 50% Platelet Aggregation Inhibitory Concentration (IC50), Arachidonic acid. On the procedure:
(§1) Blood, which had been added with sodium citrate, was collected from a male rabbit (body weight: 3 Kg), which was then subjected suitably to centrifugation so that platelet-rich plasma (PRP) and platelet-poor plasma (PPP) were obtained. Inhibitory effects of certain sample compounds of this invention against aggregation by ADP (3 μM) and arachidonic acid (1 mM) were thereafter tested by a method known per se in the art. Each sample compound was dissolved in 5% dimethylsulfoxide (DMSO) and Tween 80 (trade mark) and was then added to PRP 2 minutes before addition of each of the aggregation agents to the PRP.

Data set [2] relates to platelet aggregation by ADP. The experiment in a line: Inhibition of aggregation of rabbit platelets (PRP) by ADP. The note with it: Oryctolagus cuniculus, ADP 3 μM, compound added 2 minutes before agent, read-out: 50% Platelet Aggregation Inhibitory Concentration (IC50), ADP. It counts as cell-based. The procedure: as §1
Data set [3] is described as follows: Acute toxicity, intraperitoneal, mice. It counts as in vivo. The note with it: for abnormality observed / survival of mice: 200 mg/Kg intraperitoneal, five ddY male mice, after 7 days; for LD50 at 168 h: mouse, in vivo, ip. On the procedure:
Each of certain sample compounds (which had been obtained in Examples 6, 7, 10 and 15-17, which will be given herein) was dissolved in water and was then administered intraperitoneally at a dose of 200 mg/Kg to a group of five ddY male mice. Those mice were fed for 7 days while observing them.

Data set [4] has as its system platelet aggregation by collagen. The experiment in a line: Platelet aggregation by collagen in PRP after oral administration to rats (ex vivo). The conditions noted are these: 30 mg/Kg oral, male Wister rat, blood collected 2 hours after administration, 100 μg/ml collagen, read-out: Percent inhibition against aggregation, collagen. On the procedure:
(§2) Each sample compound was orally administered at 30 mg/Kg to a male Wister rat (body weight: 220 g) which had fasted for 24 hours. Platelet-rich plasma was obtained from blood which had been collected 2 hours after the administration and added with sodium citrate. Changes in platelet aggregation upon addition of 60 μM of ADP or 100 μg/ml of collagen were observed. The number of platelets was adjusted to 6×10^5 platelets/mm^3 for aggregation by ADP and to 3×10^5 platelets/mm^3 for aggregation by collagen. Each of the sample compounds was dissolved in DMSO+Tween 80 (trade mark) prior to its administration.

Data set [5] relates to platelet aggregation by ADP. The experiment in a line: Platelet aggregation by ADP in PRP after oral administration to rats (ex vivo). The note with it: 30 mg/Kg oral, male Wister rat, blood collected 2 hours after administration, 60 μM ADP, read-out: Percent inhibition against aggregation, ADP. The procedure: as §2
Where [6] appears, read: intraperitoneal, ddY male mice, 7 days observation.

`CCN(CC)CC#CC(=O)c1ccc(C)cc1` [Example 1, N-[4-(p-Methylphenyl)-4-oxo-2-butynyl]-N,N-diethylamine]: the IC50 turned out to be 2.5 µg/mL (≈ 10.9 µM) in data set [1] and 7 µg/mL (≈ 30.5 µM) in data set [2].
The like results for `CCN(CC)CC#CC(=O)c1ccc(OC)cc1` [Example 4] were, in that order, 3.6 µg/mL (≈ 14.7 µM) and 9 µg/mL (≈ 36.7 µM).
On to `CCN(CC)CC#CC(OC(=O)c1cccnc1)c1ccccc1` (centres unmarked) [Example 6, N-(4-Nicotinoyloxy-4-phenyl-2-butynyl)-N,N-diethylamine], for which, in data set [3], the abnormality observed entry was “no abnormality was observed” and the survival of mice entry was “all the mice were still alive”. The LD50 at 168 h in data set [3] (setting [6]) was over 200 mg/kg.
Regarding `CCN(CC)CC#CC(OC(=O)c1cccnc1)c1ccc(C)cc1` (centres unmarked) [Example 7], the inhibition at 30 mg/kg in data set [4] came out at 37.6%. Besides, in data set [3], the abnormality observed entry is recorded as “no abnormality was observed”, the survival of mice entry is listed as “all the mice were still alive” and the LD50 at 168 h was over 200 mg/kg. Further, in data set [5], the inhibition at 30 mg/kg was found to be 20.1%.
Take `CCN(CC)CC#CC(OC(=O)c1cccnc1)c1ccc(OC)cc1` (centres unmarked) [Example 10]: in data set [3], the abnormality observed result is listed as “no abnormality was observed”, the survival of mice entry is “all the mice were still alive” and the 50% lethal dose (LD50) at 168 h was over 200 mg/kg.
Take `CCN(CC)C/C=C/C(OC(=O)c1cccnc1)c1ccc(C)cc1` (centres unmarked) [Example 13]: the results for the inhibition at 30 mg/kg in data set [4] and in data set [5] were 31.5% and 30.5%, respectively.
For `CN(C)CC#CC(=O)c1ccccc1` [Example 15, N-(4-Phenyl-4-oxo-2-butynyl)-N,N-dimethylamine], the IC50 worked out at 4.7 µg/mL (≈ 25.1 µM) in data set [1] and 21 µg/mL (≈ 112 µM) in data set [2]. The compound also yielded an LD50 at 168 h in data set [3] (setting [6]) of over 200 mg/kg.
The like results for `CCCN(CC)CC#CC(=O)c1ccccc1` [Example 16, N-(4-Phenyl-4-oxo-2-butynyl)-N-ethyl-N-n-propylamine] were, in that order, 4.3 µg/mL (≈ 18.8 µM), 18 µg/mL (≈ 78.5 µM) and over 200 mg/kg.
`CCN(CC)CC#CC(=O)c1ccccc1` [Example 17]: the IC50 in data set [1] was 4.5 µg/mL (≈ 20.9 µM); in data set [2], 20 µg/mL (≈ 92.9 µM). In addition, the LD50 at 168 h in data set [3] is over 200 mg/kg.
